# Tested on: AKT protein phosphorylated on serine 473 (P-AKT-S473) in PC3 human prostate carcinoma cells
# Test: pAKT expression in PC3 human prostate carcinoma cells, MSD Multi-spot Biomarker detection (Test A)
# Type: cell-based
# Conditions: Homo sapiens, PC-3, PC3 cells, 1 to 2 h incubation, P-AKT-S473, absolute IC50, mean of two independent experiments
# Outline: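 Lysate pAKT-S473 measured by electrochemiluminescent sandwich immunoassay; inhibition versus cell-free background and DMSO-only wells, IC50 averaged over two experiments.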
row,SMILES,IC50 [nM]
1,"Cn1c(CC(=O)N2CC(C)(C)c3c(F)cccc32)nc(N2CCOCC2)cc1=O [Example 7c, 2-[2-(4-fluoro-3,3-dimethyl-2,3-dihydro-1H-indol-1-yl)-2-oxoethyl]-3-methyl-6-(morpholin-4-yl)pyrimidin-4(3H)-one]",45
2,"CN1CCN(c2cccc3c2CCN3C(=O)Cc2nc(N3CCOCC3)cc(=O)[nH]2)CC1 [Example 26d, 2-{2-[4-(4-methylpiperazin-1-yl)-2,3-dihydro-1H-indol-1-yl]-2-oxoethyl}-6-(morpholin-4-yl)pyrimidin-4(3H)-one]",167
3,"Cn1c(CC(=O)N2CC3(CCNCC3)c3ccccc32)nc(N2CCOCC2)cc1=O [Example 23d, 3-methyl-6-(morpholin-4-yl)-2-[2-oxo-2-(spiro[indole-3,4′-piperidin]-1(2H)-yl)ethyl]pyrimidin-4(3H)-one]",196
4,"CC1CN(c2cc(=O)[nH]c(CC(=O)N3c4ccccc4C[C@@H]3C)n2)CCO1 (single isomer, unassigned; (+)) [Example 29b]",24
5,"Cn1c(CC(=O)N2CCc3c(Cl)cccc32)nc(N2CCOCC2)cc1=S [Example 7e, 1-(4-chloro-2,3-dihydroindol-1-yl)-2-(1-methyl-4-morpholin-4-yl-6-thioxo-1,6-dihydropyrimidin-2-yl)ethanone]",33
6,"C[C@H]1Cc2ccccc2N1C(=O)Cc1nc(N2CCOCC2)cc(=S)[nH]1 [Example 1e, 1-((S)-2-methyl-2,3-dihydroindol-1-yl)-2-(4-morpholin-4-yl-6-thioxo-1,6-dihydropyrimidin-2-yl)ethanone]",22
7,"COc1cc(-c2cc(=O)[nH]c(CC(=O)N3CCc4c(F)cccc43)n2)ccn1 [Example 13b, 2-[2-(4-fluoro-2,3-dihydroindol-1-yl)-2-oxoethyl]-6-(2-methoxypyridin-4-yl)-3H-pyrimidin-4-one]",3000
8,"CC1Cc2c(F)cccc2N1C(=O)Cc1nc(N2CCOCC2)cc(=O)n1C (single isomer, unassigned; (-)) [Example 29c, (−)-2-{2-[4-fluoro-2-methyl-2,3-dihydro-1H-indol-1-yl]-2-oxoethyl}-3-methyl-6-(morpholin-4-yl)pyrimidin-4(3H)-one]",53
9,"O=C(Cc1nc(N2CCOCC2)cc(=O)[nH]1)N1c2ccccc2CC1CF (stereo not drawn) [Example 38d, 2-[2-((+)-2-Fluoromethyl-2,3-dihydroindol-1-yl)-2-oxoethyl]-6-morpholin-4-yl-3H-pyrimidin-4-one]",15
10,"O=C(Cc1nc(N2CCOCC2)cc(=O)[nH]1)N1CCc2c(-c3ccccc3Cl)cccc21 [Example 14d, 2-{2-[4-(2-chlorophenyl)-2,3-dihydro-1H-indol-1-yl]-2-oxoethyl}-6-(morpholin-4-yl)pyrimidin-4(3H)-one]",42
11,"O=C(Cc1nc(N2CCOC3CCCC32)cc(=O)[nH]1)N1CCc2c(F)cccc21 (stereo not drawn) [Example 11b, 2-[2-(4-fluoro-2,3-dihydroindol-1-yl)-2-oxoethyl]-6-(hexahydrocyclopenta[1,4]oxazin-4-yl)-3H-pyrimidin-4-one]",12
12,"CS(=O)(=O)N1CCN(Cc2cccc3c2CCN3C(=O)Cc2nc(N3CCOCC3)cc(=O)[nH]2)CC1 [Example 17d, 2-[2-(4-{[4-(methylsulfonyl)piperazin-1-yl]methyl}-2,3-dihydro-1H-indol-1-yl)-2-oxoethyl]-6-(morpholin-4-yl)pyrimidin-4(3H)-one]",259
13,"C[C@H]1Cc2ccccc2N1C(=O)Cc1nc(N2CCOCC2)cc(=S)n1C [Example 4e, 1-((S)-2-methyl-2,3-dihydroindol-1-yl)-2-(1-methyl-4-morpholin-4-yl-6-thioxo-1,6-dihydropyrimidin-2-yl)ethanone]",41
14,"N#Cn1c(CC(=O)N2CCc3ccccc32)nc(N2CCOCC2)cc1=O [Example 42d, 2-[2-(2,3-dihydro-1H-indol-1-yl)-2-oxoethyl]-4-(morpholin-4-yl)-6-oxopyrimidine-1(6H)-carbonitrile]",24
15,"O=C(Cc1nc(N2CCOCC2)cc(=O)[nH]1)N1CCc2c(OC(F)(F)F)cccc21 [Example 3d, 6-(morpholin-4-yl)-2-{2-oxo-2-[4-(trifluoromethoxy)-2,3-dihydro-1H-indol-1-yl]ethyl}pyrimidin-4(3H)-one]",54
16,"C[C@@H]1Cc2ccccc2N1C(=O)Cc1nc(N2CCOCC2)c(F)c(=O)n1C [Example 9a, 5-fluoro-3-methyl-2-{2-[(2R)-2-methyl-2,3-dihydro-1H-indol-1-yl]-2-oxoethyl}-6-(morpholin-4-yl)pyrimidin-4(3H)-one]",120
17,"C[C@H]1Cc2ccccc2N1C(=O)Cc1nc(N2CCOCC2)c(Br)c(=O)[nH]1 [Example 37a, 5-bromo-2-[2-((S)-2-methyl-2,3-dihydroindol-1-yl)-2-oxoethyl]-6-morpholin-4-yl-3H-pyrimidin-4-one]",56

# Same assay, conditions: PC3 cells, 1 to 2 h incubation, P-AKT-S473, absolute IC50, mean of two independent experiments
row,SMILES,IC50 [nM]
1,"CC1Cc2c(F)cccc2N1C(=O)Cc1nc(N2CCOCC2)c(F)c(=O)n1C (stereo not drawn) [Example 22a, 5-fluoro-2-[2-((+)-4-fluoro-2-methyl-2,3-dihydroindol-1-yl)-2-oxoethyl]-3-methyl-6-morpholin-4-yl-3H-pyrimidin-4-one]",98
2,"CC1Cc2c(Cl)cccc2N1C(=O)Cc1nc(N2CCOCC2)c(F)c(=O)n1C (stereo not drawn) [Example 29a, 5-fluoro-2-[2-((−)-4-chloro-2-methyl-2,3-dihydroindol-1-yl)-2-oxoethyl]-3-methyl-6-morpholin-4-yl-3H-pyrimidin-4-one]",20
3,"CC1Cc2cc(F)ccc2N1C(=O)Cc1nc(N2CCOCC2)cc(=O)n1C (single isomer, unassigned; (-)) [Example 16c, (−)-2-{2-[5-fluoro-2-methyl-2,3-dihydro-1H-indol-1-yl]-2-oxoethyl}-3-methyl-6-(morpholin-4-yl)pyrimidin-4(3H)-one]",13
4,"O=C(Cc1nc(N2CCOC(CF)C2)cc(=O)[nH]1)N1CCc2c(F)cccc21 (stereo not drawn) [Example 6b, 2-[2-(4-fluoro-2,3-dihydroindol-1-yl)-2-oxoethyl]-6-(2-fluoromethylmorpholin-4-yl)-3H-pyrimidin-4-one]",58
5,"O=C(Cc1nc(N2CCOCC2)cc(=O)[nH]1)N1c2ccccc2CC1C1CC1 (single isomer, unassigned; (+)) [Example 34d, (+)-2-[2-(2-cyclopropyl-2,3-dihydroindol-1-yl)-2-oxoethyl]-6-morpholin-4-yl-3H-pyrimidin-4-one]",48
6,"CC1Cc2cc(F)c(F)cc2N1C(=O)Cc1nc(N2CCOCC2)cc(=O)[nH]1 (stereo not drawn) [Example 21c, 2-{2-[(+)-5,6-difluoro-2-methyl-2,3-dihydro-1H-indol-1-yl]-2-oxoethyl}-6-(morpholin-4-yl)pyrimidin-4(3H)-one]",17
7,"CC1Cc2c(Br)cccc2N1C(=O)Cc1nc(N2CCOCC2)cc(=O)n1C (single isomer, unassigned; (-)) [Example 32c, (−)-2-{2-[4-bromo-2-methyl-2,3-dihydro-1H-indol-1-yl]-2-oxoethyl}-3-methyl-6-(morpholin-4-yl)pyrimidin-4(3H)-one]",14
8,"CC1Cc2c(F)cccc2N1C(=O)Cc1nc(N2CCOCC2)cc(=O)n1C (single isomer, unassigned; (+)) [Example 30c, (+)-2-{2-[4-fluoro-2-methyl-2,3-dihydro-1H-indol-1-yl]-2-oxoethyl}-3-methyl-6-(morpholin-4-yl)pyrimidin-4(3H)-one]",73
9,"CC1Cc2ccccc2N1C(=O)Cc1nc(N2CCOCC2)cc(=O)[nH]1 (single isomer, unassigned; (-)) [Example 22b, (−)-2-[2-(2-methyl-2,3-dihydroindol-1-yl)-2-oxoethyl]-6-morpholin(D8)-4-yl-3H-pyrimidin-4-one]",9
10,"CC1Cc2ccccc2N1C(=O)Cc1nc(N2CCOCC2)cc(=O)[nH]1 (single isomer, unassigned; (+)) [Example 21b, (+)-2-[2-(2-methyl-2,3-dihydroindol-1-yl)-2-oxoethyl]-6-morpholin(D8)-4-yl-3H-pyrimidin-4-one]",27
11,"CC1Cc2c(Cl)cccc2N1C(=O)Cc1nc(N2CCOCC2)cc(=O)[nH]1 (single isomer, unassigned; (-)) [Example 3c, (−)-2-{2-[4-chloro-2-methyl-2,3-dihydro-1H-indol-1-yl]-2-oxoethyl}-6-(morpholin-4-yl)pyrimidin-4(3H)-one]",1
12,"CC1Cc2c(Br)cccc2N1C(=O)Cc1nc(N2CCOCC2)cc(=O)n1C (single isomer, unassigned; (+)) [Example 31c, (+)-2-{2-[4-bromo-2-methyl-2,3-dihydro-1H-indol-1-yl]-2-oxoethyl}-3-methyl-6-(morpholin-4-yl)pyrimidin-4(3H)-one]",36
13,"O=C(Cc1nc(N2CCOCC2)cc(=O)[nH]1)N1c2ccccc2CC1c1ccccc1 (single isomer, unassigned; (+)) [Example 24d, (+)-6-(morpholin-4-yl)-2-{2-oxo-2-[2-phenyl-2,3-dihydro-1H-indol-1-yl]ethyl}pyrimidin-4(3H)-one]",205
14,"O=C(Cc1nc(N2CCOC(CO)C2)cc(=O)[nH]1)N1CCc2c(Cl)cccc21 (single isomer, unassigned; (+)) [Example 26b, (+)-2-[2-(4-Chloro-2,3-dihydroindol-1-yl)-2-oxoethyl]-6-(2-hydroxymethylmorpholin-4-yl)-3H-pyrimidin-4-one]",240
15,"CC1Cc2c(ccc(F)c2F)N1C(=O)Cc1nc(N2CCOCC2)c(F)c(=O)[nH]1 (stereo not drawn) [Example 20a, 2-[2-((−)-4,5-difluoro-2-methyl-2,3-dihydroindol-1-yl)-2-oxoethyl]-5-fluoro-6-morpholin-4-yl-3H-pyrimidin-4-one]",2
16,"O=C(Cc1nc(N2CCOC(CO)C2)cc(=O)[nH]1)N1CCc2c(Cl)cccc21 (single isomer, unassigned; (-)) [Example 25b, (−)-2-[2-(4-Chloro-2,3-dihydroindol-1-yl)-2-oxoethyl]-6-(2-hydroxymethylmorpholin-4-yl)-3H-pyrimidin-4-one]",27

# From US9133168B2, “Pyrimidine derivatives, preparation thereof, and pharmaceutical use thereof as akt(pkb) phosphorylation inhibitors” (SANOFI, priority 2010, dated 2015)
